What was measured:
[1] = Measurement of solubility in solvent (propyleneglycolmonomethylether acetate); conditions: 28° C., largest amount that dissolved completely, added in 1 g steps to 10 g of solvent
Protocol: As for solubility, 10 g of propyleneglycolmonomethylether acetate was put in a container and 1 g of trisphenol compound was added while keeping the temperature at 28° C., and the mixture was agitated for 10 minutes to check for complete dissolution of the compound. […] The solubility (amount in grams per 100 g of solvent) was calculated from the largest amount of compound in grams that dissolved completely.

[2] = Measurement of glass transition temperature by differential scanning calorimeter; type: physicochemical; conditions: DSC, melted compound cooled and heated again, 10.0° C./min.
Protocol: Each compound was heated to a temperature 20° C. higher than the melting point of the compound in crystal form using a differential scanning calorimeter, and the melted compound was cooled and then heated again to measure the glass transition point. The measurement conditions were 40° C. as the temperature at which to start measurement, the melting point+20° C. as the temperature at which to end measurement, and 10.0° C./min. as the rate of heating.

melting point [°C] | Structure (SMILES) | Solubility [1] | Glass transition temperature [2] [°C]
198 | CC(c1ccc(O)cc1)(c1ccc(O)cc1)c1ccc(-c2ccc(O)cc2)cc1 [Example 1, 1-[4-(4-hydroxyphenyl)phenyl]-1,1-bis(4-hydroxyphenyl)ethane] | 40 g/100 g of propyleneglycolmonomethylether acetate | 
231 | Cc1cc(C(C)(c2ccc(-c3ccc(O)cc3)cc2)c2cc(C)c(O)c(C)c2)cc(C)c1O [Example 3, 1-[4-(4-hydroxyphenyl)phenyl]-1,1-bis(4-hydroxy-3,5-dimethylphenyl)ethane] | 10 g/100 g of propyleneglycolmonomethylether acetate | 104
 | CC(C)(c1ccc(O)cc1)c1ccc(C(C)(c2ccc(O)cc2)c2ccc(O)cc2)cc1 [Comparative Example, 1-[α-methyl-α-(4-hydroxyphenyl)ethyl]-4-[α,α-bis(4-hydroxyphenyl)ethyl]benzene, reference compound] |  | 96

Source: patent US8816135B2, “Trisphenol compound” (Honshu Chemical Industry Co., Ltd., priority 2009, dated 2014)
